Entries after “also recorded” stand apart in the source; their conditions may differ. Like-named read-outs stand apart in the source and are kept apart here.
Key:
[1] = system: primary cultured pig hepatocytes; test: Steroid metabolism in primary cultured pig hepatocytes, LC-TOF-MS of cell culture medium; conditions: for Peak height of the ion chromatogram of the steroid metabolite in cell culture medium, C: 48 h incubation in absence of enzyme inhibitors, 10 µM parent steroid, Mean ± SD
in vitro = conditions: male, Large White, pig
Experimental: Primary pig hepatocytes were isolated from Large White male pigs (3–5 days old) using procedure described by Chen et al.. The experimental protocol for using animals was approved by the Animal Ethics Committee of the China Agricultural University, Beijing, China (permission number: 2011-11-23-1). […] Approximately 5×10^6 cells were plated into 10 cm Petri dishes with 10 ml of Dulbecco modified Eagle’s medium (DMEM) containing 20% fetal bovine serum (FBS) supplemented with insulin (10 mg/L), penicillin (100 U/mL) and streptomycin (100 µg/mL). Hepatocytes were incubated for 24 h in a humidified atmosphere at 37°C with 5% of CO2.
After the incubation, the primary pig hepatocytes were washed three times with phosphate buffer saline solution (PBS) before they were treated with steroids and/or inhibitors. In steroid metabolism studies, hepatocytes were incubated in 10 ml of basal growth medium containing phenol red-free DMEM with 10% of charcoal treated FBS fortified with 10 µM (final concentration) of androstenone, 17β-estradiol or dihydrotestosterone. In the inhibition experiments, 10 µM (final concentration) of trilostane or apigenin, the specific inhibitors of 3βHSD and 17βHSD respectively, were added to hepatocytes simultaneously with androstenone, 17β-estradiol or dihydrotestosterone. Solutions of both, the inhibitors and steroids, were prepared in methanol. […] In the cytotoxicity text, the steroids were incubated with different concentrations of inhibitors (1, 10, 25 and 50 µM) for 48 h. The cell viability was analyzed using CellTiter-Glo Luminescent Cell Viability Assay (Promega, Madison, WI) reagent following manufacture’s protocol. The cell culture medium was collected at the following time points: 0, 6, 12, 18, 24, 30, 36, 42 and 48 h after adding steroids and/or inhibitors, and was stored at −80°C until metabolites analysis. Cells treated with basal growth medium were used as control. The experiments were repeated in three different days. Experiments on each of the three days were conducted in triplicate.

[2] = system: primary cultured pig hepatocytes; conditions: male, Large White, 10 µM
17βHSD = test: Inhibition of steroid glucuronide metabolite formation in pig hepatocytes by the 17βHSD inhibitor; type: cell-based
Experimental: (§1) The experiments were repeated in three different days.
(§2) Extraction procedure for steroid metabolites was as follows: two mL of cell culture medium was taken in duplicate from each hepatocytes incubation and split into two samples, 1 mL per sample. One sample was treated with 0.1 mL of 30% trichloroacetic acid (TCA) to precipitate protein. The protein precipitation procedure was optimized by analyzing protein residues using HPLC at ultraviolet wavelength (240 nm). Another sample was pre-treated with β-glucuronidase prior to protein precipitation. The pre-treatment involved incubation with 2 mL of PBS buffer (pH = 5.0) in the presence of β-glucuronidase (2.08 µkat) for 16 h at 37°C. The samples were centrifuged at 17226 g for 10 min. All of the supernatants were collected and loaded onto a SPE cartridge (Bond Elut-C18, 500 mg/3 mL, Agilent, Lake Forest, CA, USA) preconditioned with 3 mL of methanol and water. The cartridges were washed with 3 mL of water and 3 mL 5% of methanol and then vacuum dried. The analytes were eluted with 9 mL of acetonitrile (ACN). The elutants were evaporated under nitrogen and reconstituted with 400 µL of 62.5% methanol. Solvents were passed through 0.22 µm filter paper (Jinteng company, Tianjin, China), and then transferred to inserts for analysis. The recoveries were determined by analyzing spiked samples in a basal medium. The recoveries for androstenone, 17β-estradiol and dihydrotestosterone were in a range of 60–95%.
(§3) Steroid metabolites were analyzed by LC-TOF-MS (QSTAR Elite, AB Sciex, ON, Canada) equipped with an electrospray ion source (TurboIonSpray) and controlled by Analyst QS 2.0 software. ESI source was run on both, a positive and negative mode. Spectrometry parameters were as follows: ion source GS1 and GS2 were 0.41 and 0.34 MPa, respectively. Curtain gas was 0.14 MPa. Collision gas was 0.04 MPa. All the gases were supplied with nitrogen (purity≥99.995%). IonSpray voltage was 5500 V (ESI+) and −4200 V (ESI–). Ion source temperature was 500°C. Declustering Potential (DP) was 60 V (ESI+) and −60 V (ESI–). The Q1 mass monitoring was conducted using a scan mode in the range from 200 to 600 m/z. Mass intensity above 100 counts was set for acquiring product ions on TOF analyzer. An information dependent acquisition (IDA) method was set to optimize data acquisition.
(§4) Chromatographic separation was conducted using HPLC coupled to mass spectrometry (1200 SL, Agilent Technologies, USA) equipped with a binary pump, vacuum solvent degasser, column oven and autosampler (Agilent Technologies, Waldbronn, Germany). The column used was Zorbax Eclipse Plus C18 (2.1×100 mm, 3.5 µm) with a guard column (2.1×12.5 mm, 5 µm) (Agilent Technologies, USA). For the ESI+ mode, the mobile phase was 0.1% formic acid in water (A) and methanol (B). For the ESI– mode, the mobile phase was 0.1% ammonium in water (A) and methanol (B). The linear gradient used was as follows: 50% to 95% solvent B at 0–5 min; 95% solvent at 9 min, 50% solvent B at 9.1 and 15 min. The flow rate was 300 µL/min, and the sample injection volume was 20 µL.

3βHSD = molecular target: T1, 3βHSD (Sus scrofa, UniProt Q9N119); test: Inhibition of steroid glucuronide metabolite formation in pig hepatocytes by the 3βHSD inhibitor; type: cell-based
T1 construct: endogenous in cells; host or cells: primary hepatocytes of Large White male pigs
T1 sequence (Q9N119 1-373): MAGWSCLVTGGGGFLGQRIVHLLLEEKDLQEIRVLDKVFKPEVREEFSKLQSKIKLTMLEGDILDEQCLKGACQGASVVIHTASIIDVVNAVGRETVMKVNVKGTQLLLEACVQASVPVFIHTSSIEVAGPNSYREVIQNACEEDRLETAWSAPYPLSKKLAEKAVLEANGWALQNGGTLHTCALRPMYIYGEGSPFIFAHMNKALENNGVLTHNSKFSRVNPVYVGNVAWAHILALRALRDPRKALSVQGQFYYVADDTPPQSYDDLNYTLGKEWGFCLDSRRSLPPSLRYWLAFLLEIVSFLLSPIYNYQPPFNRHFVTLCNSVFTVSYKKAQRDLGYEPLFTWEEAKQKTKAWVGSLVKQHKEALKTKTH
Experimental: as §1, §2, §3, §4

[3] = 10 µM inhibitor with 17β-estradiol
[4] = 10 µM inhibitor with dihydrotestosterone
[5] = 48 h, 10 µM apigenin with 10 µM 17β-estradiol, Mean ± SD
[6] = 48 h, 10 µM trilostane with 10 µM 17β-estradiol, Mean ± SD

Compound | Peak height of the ion chromatogram of the steroid metabolite in cell culture medium, C [1] | viability at 48 h, 1 µM (in vitro) | viability at 48 h, 10 µM (in vitro) | viability at 48 h, 25 µM (in vitro) | viability at 48 h, 50 µM (in vitro) | also measured
5α-androst-16-en-3β-glucuronide [Androstenone glucuronide] | 3.4±0.5 cps/1000 |  |  |  |  | 
C[C@]12CC[C@@H]3c4ccc(O)cc4CC[C@H]3[C@@H]1CC[C@@H]2O [17β-Estradiol] |  | 109 ± 4.8% | 91.6 ± 0.4% | 89.8 ± 8% | 83.6 ± 1.6% | Share of 17β-estradiol oxidized at C-17 to estrone, forming E1-G [2]: over 80%; Share of 17β-estradiol undergoing direct phase II metabolism, forming E2-G [2]: Less than 20%; Parent steroid in cell culture medium after incubation with hepatocytes ([2]; 6 h): No 17β-estradiol was found
C[C@]12CCC(=O)C[C@@H]1CC[C@@H]1[C@@H]2CC[C@]2(C)C=CC[C@@H]12 [Androstenone, 5α-androst-16-ene-3-one] |  | 90.6 ± 3.8% | 89 ± 7.2% | 77.2 ± 0.6% | 78.7 ± 6.8% | Metabolite identified [2]: hydroxylated to 3β-A prior to glucuronidation
O=c1cc(-c2ccc(O)cc2)oc2cc(O)cc(O)c12 [Apigenin, apigenin] |  | 97.7 ± 3.2% | 83.5 ± 5.9% | 64.2 ± 1.7% | 69.8 ± 0.9% | Inhibition of E2-G and E1-G formation (17βHSD; [3]): no significant inhibition; Effect on the level of androstenone metabolite (17βHSD; 10 µM inhibitor with androstenone): did not affect significantly; Effect on DHT-G level / formation (17βHSD; [4]): did not have any effect; Peak height of Estradiol 3β-glucuronide in cell culture medium (17βHSD; [5]): 2.6±0.1 cps/1000; Peak height of Estrone glucuronide in cell culture medium (17βHSD; [5]): 15.3±1.1 cps/1000; Peak height of Androstenone glucuronide in cell culture medium (17βHSD; 48 h, 10 µM apigenin with 10 µM androstenone, Mean ± SD): 3.7±0.9 cps/1000; Peak height of Dihydrotestosterone 17β-glucuronide in cell culture medium (17βHSD; 48 h, 10 µM apigenin with 10 µM dihydrotestosterone, Mean ± SD): 11.5±0.5 cps/1000
C[C@]12CCC(=O)C[C@@H]1CC[C@@H]1[C@@H]2CC[C@]2(C)[C@@H](O)CC[C@@H]12 [Dihydrotestosterone] |  | 96.7 ± 0.1% | 84.3 ± 3.9% | 79.1 ± 2.2% | 76.1 ± 4.7% | Metabolite identified ([1]; 10 µM steroid, LC-TOF-MS, cell culture medium): 5α-dihydrotestosterone-17β-glucuronide; Parent steroid in cell culture medium after incubation with hepatocytes ([1]; 10 µM steroid, after 6 h of incubation): rapidly metabolized; also recorded: No dihydrotestosterone was found
C[C@]12CC[C@@H]3c4ccc(O[C@@H]5O[C@H](C(=O)O)[C@@H](O)[C@H](O)[C@H]5O)cc4CC[C@H]3[C@@H]1CC[C@@H]2O [Estradiol 3β-glucuronide, β-estradiol-3-glucuronide] | 3.1±0.8 cps/1000 |  |  |  |  | 
C[C@]12CC[C@@H]3c4ccc(O[C@@H]5O[C@H](C(=O)O)[C@@H](O)[C@H](O)[C@H]5O)cc4CC[C@H]3[C@@H]1CCC2=O [Estrone glucuronide, estrone-3-glucuronide] | 16.5±2.2 cps/1000 |  |  |  |  | 
C[C@]12CC[C@H]3[C@@H](CC[C@@]45O[C@@H]4C(O)=C(C#N)C[C@]35C)[C@@H]1CC[C@@H]2O [Trilostane, trilostane] |  | 91.8 ± 0.1% | 82.4 ± 2.1% | 79.1 ± 2.9% | 69.2 ± 1.8% | Inhibition of E2-G and E1-G formation (3βHSD; [3]): no significant inhibition; Effect on DHT-G formation (3βHSD; [4]): greatly inhibited; Decrease in the formation of androstenone metabolite (3βHSD; 10 µM inhibitor, cell culture medium): 70%; Reduction of DHT-G formation (3βHSD; 10 µM inhibitor, hepatocytes): ~86%; Peak height of Estradiol 3β-glucuronide in cell culture medium (3βHSD; [6]): 2.7±0.4 cps/1000; Peak height of Estrone glucuronide in cell culture medium (3βHSD; [6]): 13.5±1.7 cps/1000; Peak height of Androstenone glucuronide in cell culture medium (3βHSD; 48 h, 10 µM trilostane with 10 µM androstenone, Mean ± SD): 1.0±0.6 cps/1000; Peak height of Dihydrotestosterone 17β-glucuronide in cell culture medium (3βHSD; 48 h, 10 µM trilostane with 10 µM dihydrotestosterone, Mean ± SD): 1.6±0.2 cps/1000

Reference: publication PMC4295843, “Metabolism of Androstenone, 17β-Estradiol and Dihydrotestosterone in Primary Cultured Pig Hepatocytes and the Role of 3β-Hydroxysteroid Dehydrogenase in This Process” (PLoS ONE, 2015)
